Activity calls are given as the source filed them. The calls are words filed in the database; no cut-off is given here.
Legend:
[1] = target: Cystic fibrosis transmembrane conductance regulator (Homo sapiens, UniProt P13569); test: HBE-TECC (Human Bronchial Epithelial- Trans-Epithelial Current Clamp) assay
[2] = target: Serine/threonine-protein kinase LATS2 (Homo sapiens) (UniProt Q9NRM7); details: Compound concentration 1000.0 nM
[3] = target: Phosphatidylinositol 4,5-bisphosphate 3-kinase catalytic subunit gamma isoform (Homo sapiens) (UniProt P48736); details: Compound concentration 1000.0 nM
[4] = target: Histamine H2 receptor (Homo sapiens) (UniProt P25021); test: H2 (h) Eurofins-Cerep binding assay; parameters: ligand concentration 0.075 nM; details: filed as antagonist, Compound concentration 10.0 uM
[5] = target: Serine/threonine-protein kinase ULK3 (Homo sapiens) (UniProt Q6PHR2); details: Compound concentration 1000.0 nM
[6] = system: Tyrosine-protein kinase ABL1 (Homo sapiens), P00519 [H396P]; details: Compound concentration 1000.0 nM
[7] = target: Myosin light chain kinase (Homo sapiens) (UniProt Q32MK0); details: Compound concentration 1000.0 nM
Myosin light chain kinase (Homo sapiens), sequence (Q32MK0 whole entry, canonical isoform): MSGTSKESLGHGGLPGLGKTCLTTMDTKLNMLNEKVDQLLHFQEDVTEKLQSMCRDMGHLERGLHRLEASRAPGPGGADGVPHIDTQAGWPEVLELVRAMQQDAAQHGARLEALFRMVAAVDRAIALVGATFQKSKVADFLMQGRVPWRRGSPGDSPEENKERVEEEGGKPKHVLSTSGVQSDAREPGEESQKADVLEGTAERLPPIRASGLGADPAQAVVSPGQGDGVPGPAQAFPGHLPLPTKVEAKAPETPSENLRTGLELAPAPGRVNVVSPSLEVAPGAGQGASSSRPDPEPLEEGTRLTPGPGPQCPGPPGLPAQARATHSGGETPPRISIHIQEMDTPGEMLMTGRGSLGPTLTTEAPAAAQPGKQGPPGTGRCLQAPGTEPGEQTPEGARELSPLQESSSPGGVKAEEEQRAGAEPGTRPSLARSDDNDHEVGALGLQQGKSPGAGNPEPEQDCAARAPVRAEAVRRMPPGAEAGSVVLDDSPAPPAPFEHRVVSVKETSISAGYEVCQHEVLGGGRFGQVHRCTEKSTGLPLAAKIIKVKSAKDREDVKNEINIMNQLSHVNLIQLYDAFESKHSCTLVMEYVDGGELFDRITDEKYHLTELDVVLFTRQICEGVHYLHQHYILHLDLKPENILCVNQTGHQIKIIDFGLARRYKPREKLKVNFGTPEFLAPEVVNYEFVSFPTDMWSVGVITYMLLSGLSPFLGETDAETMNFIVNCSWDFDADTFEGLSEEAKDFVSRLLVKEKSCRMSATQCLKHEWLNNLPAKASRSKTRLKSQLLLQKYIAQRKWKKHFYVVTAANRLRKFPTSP

[8] = system: Phosphatidylinositol 4,5-bisphosphate 3-kinase catalytic subunit alpha isoform (Homo sapiens), P42336 [H1047L]; details: Compound concentration 1000.0 nM
[9] = target: Casein kinase I isoform gamma-2 (Homo sapiens) (UniProt P78368); details: Compound concentration 1000.0 nM
Casein kinase I isoform gamma-2 (Homo sapiens), sequence (P78368 whole entry, looked up, canonical isoform): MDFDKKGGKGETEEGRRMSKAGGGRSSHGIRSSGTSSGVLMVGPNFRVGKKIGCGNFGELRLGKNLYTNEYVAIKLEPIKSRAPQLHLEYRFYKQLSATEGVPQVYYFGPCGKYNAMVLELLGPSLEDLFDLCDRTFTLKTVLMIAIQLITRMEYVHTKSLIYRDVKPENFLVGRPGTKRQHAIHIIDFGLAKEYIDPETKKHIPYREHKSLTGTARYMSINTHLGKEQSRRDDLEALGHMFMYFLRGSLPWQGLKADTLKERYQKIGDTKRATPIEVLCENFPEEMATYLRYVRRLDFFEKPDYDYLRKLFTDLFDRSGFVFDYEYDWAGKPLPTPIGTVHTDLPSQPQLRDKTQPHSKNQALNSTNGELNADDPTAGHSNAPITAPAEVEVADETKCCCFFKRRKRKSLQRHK

[10] = target: Phosphorylase b kinase regulatory subunit alpha, liver isoform (Homo sapiens) (UniProt P46019); details: Compound concentration 1000.0 nM
[11] = target: Sigma non-opioid intracellular receptor 1 (Homo sapiens, UniProt Q99720); test: GPCRScan assay: inhibition of Sigma 1; parameters: radioligand conc. used [nm] 4.0 – 5.0, parental cells HEKT
[12] = target: D(2) dopamine receptor (Homo sapiens) (UniProt P14416); test: D2S (h) Eurofins-Cerep binding assay; parameters: ligand concentration 0.3 nM; details: filed as antagonist, Compound concentration 10.0 uM
[13] = target: Histamine H4 receptor (Homo sapiens) (UniProt Q9H3N8); details: Compound concentration 10.0 uM
[14] = target: Insulin-like growth factor 1 receptor (Homo sapiens) (UniProt P08069); details: Compound concentration 1000.0 nM
Insulin-like growth factor 1 receptor (Homo sapiens), sequence (P08069 31-736 limits assumed): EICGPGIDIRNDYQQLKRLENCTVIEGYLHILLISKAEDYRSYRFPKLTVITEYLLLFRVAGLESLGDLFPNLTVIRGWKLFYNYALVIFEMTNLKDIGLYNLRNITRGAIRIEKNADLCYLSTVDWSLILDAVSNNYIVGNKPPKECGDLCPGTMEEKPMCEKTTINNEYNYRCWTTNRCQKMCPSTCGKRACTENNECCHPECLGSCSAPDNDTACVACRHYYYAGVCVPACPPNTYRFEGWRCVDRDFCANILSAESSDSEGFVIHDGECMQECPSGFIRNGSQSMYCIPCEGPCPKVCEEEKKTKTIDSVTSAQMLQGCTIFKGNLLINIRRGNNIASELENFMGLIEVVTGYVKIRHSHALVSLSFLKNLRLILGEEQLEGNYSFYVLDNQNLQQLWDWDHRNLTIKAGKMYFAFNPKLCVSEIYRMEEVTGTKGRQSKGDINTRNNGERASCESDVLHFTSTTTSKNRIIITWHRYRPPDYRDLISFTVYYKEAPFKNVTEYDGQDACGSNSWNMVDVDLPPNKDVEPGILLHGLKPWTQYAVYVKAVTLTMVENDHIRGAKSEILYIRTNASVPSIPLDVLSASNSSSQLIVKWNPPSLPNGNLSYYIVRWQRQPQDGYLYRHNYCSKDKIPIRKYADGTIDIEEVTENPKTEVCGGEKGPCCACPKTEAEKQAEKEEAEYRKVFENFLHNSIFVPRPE
Insulin-like growth factor 1 receptor (Homo sapiens), sequence (P08069 741-1367 limits assumed): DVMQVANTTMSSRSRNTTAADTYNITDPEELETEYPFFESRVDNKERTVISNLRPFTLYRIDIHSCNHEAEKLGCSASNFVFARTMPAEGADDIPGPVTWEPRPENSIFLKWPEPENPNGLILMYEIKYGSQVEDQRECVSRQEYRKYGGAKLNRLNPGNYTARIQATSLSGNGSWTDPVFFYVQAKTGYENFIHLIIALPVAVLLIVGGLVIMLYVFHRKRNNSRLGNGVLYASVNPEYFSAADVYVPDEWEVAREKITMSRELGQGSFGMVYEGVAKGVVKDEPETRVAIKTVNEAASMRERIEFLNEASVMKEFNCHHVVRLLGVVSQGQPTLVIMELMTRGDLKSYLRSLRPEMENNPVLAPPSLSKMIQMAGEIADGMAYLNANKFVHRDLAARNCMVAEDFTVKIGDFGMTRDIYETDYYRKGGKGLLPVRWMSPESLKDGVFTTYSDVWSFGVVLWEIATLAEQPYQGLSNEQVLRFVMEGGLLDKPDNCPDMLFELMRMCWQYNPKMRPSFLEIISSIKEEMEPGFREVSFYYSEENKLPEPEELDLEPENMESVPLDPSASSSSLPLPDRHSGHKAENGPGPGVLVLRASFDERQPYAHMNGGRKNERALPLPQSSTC

[15] = target: Ribosomal protein S6 kinase alpha-2 (Homo sapiens) (UniProt Q15349); details: Compound concentration 1000.0 nM
Ribosomal protein S6 kinase alpha-2 (Homo sapiens), sequence (Q15349 whole entry): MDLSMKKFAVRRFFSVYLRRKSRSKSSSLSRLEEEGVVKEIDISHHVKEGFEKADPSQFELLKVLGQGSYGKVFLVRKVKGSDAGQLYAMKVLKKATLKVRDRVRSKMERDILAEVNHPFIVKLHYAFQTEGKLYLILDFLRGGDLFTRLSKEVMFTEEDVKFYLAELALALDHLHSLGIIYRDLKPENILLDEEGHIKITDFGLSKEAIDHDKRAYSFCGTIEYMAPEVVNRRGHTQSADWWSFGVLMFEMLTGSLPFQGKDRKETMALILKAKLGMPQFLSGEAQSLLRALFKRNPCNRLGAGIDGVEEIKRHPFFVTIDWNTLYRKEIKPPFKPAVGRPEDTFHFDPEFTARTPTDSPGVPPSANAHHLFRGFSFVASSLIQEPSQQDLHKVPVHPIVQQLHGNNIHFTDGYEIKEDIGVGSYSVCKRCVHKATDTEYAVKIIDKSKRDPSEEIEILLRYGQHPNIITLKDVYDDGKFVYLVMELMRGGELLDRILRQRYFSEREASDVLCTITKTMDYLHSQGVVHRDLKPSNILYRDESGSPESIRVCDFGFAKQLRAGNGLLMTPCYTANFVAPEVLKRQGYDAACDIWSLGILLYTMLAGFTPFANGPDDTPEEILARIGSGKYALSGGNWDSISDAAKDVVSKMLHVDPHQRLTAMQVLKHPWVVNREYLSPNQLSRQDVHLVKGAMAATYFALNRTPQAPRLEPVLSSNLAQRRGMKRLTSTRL

[16] = target: Activin receptor type-1-like (Homo sapiens) (UniProt P37023); details: Compound concentration 1000.0 nM
Activin receptor type-1-like (Homo sapiens), sequence (P37023 whole entry): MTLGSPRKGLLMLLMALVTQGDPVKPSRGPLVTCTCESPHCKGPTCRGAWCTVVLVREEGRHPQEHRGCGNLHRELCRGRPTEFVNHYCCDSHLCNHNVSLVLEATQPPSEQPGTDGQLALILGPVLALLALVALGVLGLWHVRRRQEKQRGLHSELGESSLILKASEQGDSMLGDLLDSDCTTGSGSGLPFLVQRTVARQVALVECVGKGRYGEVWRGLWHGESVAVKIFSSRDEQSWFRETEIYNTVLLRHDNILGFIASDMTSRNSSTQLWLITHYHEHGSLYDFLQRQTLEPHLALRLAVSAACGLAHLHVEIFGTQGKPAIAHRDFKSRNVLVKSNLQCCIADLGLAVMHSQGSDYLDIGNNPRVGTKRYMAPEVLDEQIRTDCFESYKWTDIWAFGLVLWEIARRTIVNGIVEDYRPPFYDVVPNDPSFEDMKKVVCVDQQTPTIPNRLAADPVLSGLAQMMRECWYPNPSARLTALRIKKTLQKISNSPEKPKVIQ

[17] = target: Cyclin-dependent kinase 11A (Homo sapiens) (UniProt Q9UQ88); details: Compound concentration 1000.0 nM
[18] = system: Proto-oncogene tyrosine-protein kinase receptor Ret (Homo sapiens), P07949 [M918T]; details: Compound concentration 1000.0 nM
[19] = target: Tyrosine-protein kinase JAK1 (Homo sapiens) (UniProt P23458); details: Compound concentration 1000.0 nM
[20] = target: NUAK family SNF1-like kinase 1 (Homo sapiens) (UniProt O60285); details: Compound concentration 1000.0 nM
[21] = system: Phosphatidylinositol 4,5-bisphosphate 3-kinase catalytic subunit alpha isoform (Homo sapiens), P42336 [E545K]; details: Compound concentration 1000.0 nM
[22] = target: Casein kinase II subunit alpha' (Homo sapiens) (UniProt P19784); details: Compound concentration 1000.0 nM
[23] = target: L-type Ca2+ channel (dihydropyridine site) (Rattus norvegicus, UniProt P22002+P27732+Q02485); test: Ca2+ channel (L, dihydropyridine site) Eurofins-Cerep binding assay; format: protein assay; parameters: incubation time 90 min, incubation temperature RT, ligand concentration 0.1 nM; details: rat cerebral cortex, probe [3H]nitrendipine (0.1 nM), compound concentration 10 uM, read-out: % Inhibition of Control Specific Binding (Mean n=2)
[24] = target: Delta-type opioid receptor (Homo sapiens) (UniProt P41143); test: delta (DOP) (h) Eurofins-Cerep binding assay; parameters: ligand concentration 0.5 nM; details: filed as agonist, Compound concentration 10.0 uM
Delta-type opioid receptor (Homo sapiens), sequence (P41143 whole entry): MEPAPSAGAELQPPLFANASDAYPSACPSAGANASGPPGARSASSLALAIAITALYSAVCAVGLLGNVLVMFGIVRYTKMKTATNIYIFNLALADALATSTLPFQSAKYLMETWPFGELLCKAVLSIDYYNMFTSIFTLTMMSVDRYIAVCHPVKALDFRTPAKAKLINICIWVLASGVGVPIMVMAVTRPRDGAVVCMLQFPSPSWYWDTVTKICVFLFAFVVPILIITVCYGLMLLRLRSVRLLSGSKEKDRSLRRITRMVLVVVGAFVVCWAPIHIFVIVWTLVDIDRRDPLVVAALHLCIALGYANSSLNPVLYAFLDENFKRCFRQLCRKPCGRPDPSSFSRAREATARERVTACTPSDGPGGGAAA

[25] = system: Tyrosine-protein kinase ABL1 (Homo sapiens), P00519 [E255K]; details: Compound concentration 1000.0 nM
[26] = target: Dual specificity mitogen-activated protein kinase kinase 7 (Homo sapiens) (UniProt O14733); details: Compound concentration 1000.0 nM
Dual specificity mitogen-activated protein kinase kinase 7 (Homo sapiens), sequence (O14733 whole entry): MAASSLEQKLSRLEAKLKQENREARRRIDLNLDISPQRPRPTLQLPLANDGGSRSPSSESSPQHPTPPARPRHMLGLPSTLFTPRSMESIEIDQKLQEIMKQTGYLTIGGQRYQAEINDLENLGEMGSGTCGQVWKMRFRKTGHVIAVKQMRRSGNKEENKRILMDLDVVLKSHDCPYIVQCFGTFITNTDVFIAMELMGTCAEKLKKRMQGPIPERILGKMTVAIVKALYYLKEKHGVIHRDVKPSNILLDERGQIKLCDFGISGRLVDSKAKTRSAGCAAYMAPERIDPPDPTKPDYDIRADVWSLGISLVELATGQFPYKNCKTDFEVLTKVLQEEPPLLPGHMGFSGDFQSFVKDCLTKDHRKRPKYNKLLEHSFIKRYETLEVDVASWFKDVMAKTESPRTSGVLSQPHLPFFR

[27] = target: Vasoactive intestinal polypeptide receptor 1 (Homo sapiens) (UniProt P32241); test: VPAC1 (VIP1) (h) Eurofins-Cerep binding assay; details: filed as agonist, Compound concentration 10.0 uM
[28] = target: 5-hydroxytryptamine receptor 1A (Homo sapiens) (UniProt P08908); test: 5-HT1A (h) Eurofins-Cerep binding assay; parameters: ligand concentration 0.5 nM; details: filed as agonist, Compound concentration 10.0 uM
5-hydroxytryptamine receptor 1A (Homo sapiens), sequence (P08908 whole entry): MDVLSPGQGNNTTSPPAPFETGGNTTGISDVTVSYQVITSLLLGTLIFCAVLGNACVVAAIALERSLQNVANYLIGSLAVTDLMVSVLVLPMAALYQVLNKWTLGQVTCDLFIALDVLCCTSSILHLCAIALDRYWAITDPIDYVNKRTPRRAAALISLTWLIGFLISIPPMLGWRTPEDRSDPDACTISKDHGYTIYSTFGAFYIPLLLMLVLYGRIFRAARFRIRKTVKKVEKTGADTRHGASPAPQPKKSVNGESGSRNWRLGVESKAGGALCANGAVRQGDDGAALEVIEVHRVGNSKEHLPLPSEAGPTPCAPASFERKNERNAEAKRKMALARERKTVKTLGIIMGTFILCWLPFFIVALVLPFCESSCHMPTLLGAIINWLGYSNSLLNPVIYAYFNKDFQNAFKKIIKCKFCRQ

[29] = target: Serine/threonine-protein kinase MRCK alpha (Homo sapiens) (UniProt Q5VT25); details: Compound concentration 1000.0 nM
[30] = target: T1, Alpha-2A adrenergic receptor (Homo sapiens) (UniProt P08913); test: Alpha2A (h) Eurofins-Cerep binding assay; parameters: ligand concentration 1 nM; details: filed as antagonist, Compound concentration 10.0 uM
T1 sequence (whole entry): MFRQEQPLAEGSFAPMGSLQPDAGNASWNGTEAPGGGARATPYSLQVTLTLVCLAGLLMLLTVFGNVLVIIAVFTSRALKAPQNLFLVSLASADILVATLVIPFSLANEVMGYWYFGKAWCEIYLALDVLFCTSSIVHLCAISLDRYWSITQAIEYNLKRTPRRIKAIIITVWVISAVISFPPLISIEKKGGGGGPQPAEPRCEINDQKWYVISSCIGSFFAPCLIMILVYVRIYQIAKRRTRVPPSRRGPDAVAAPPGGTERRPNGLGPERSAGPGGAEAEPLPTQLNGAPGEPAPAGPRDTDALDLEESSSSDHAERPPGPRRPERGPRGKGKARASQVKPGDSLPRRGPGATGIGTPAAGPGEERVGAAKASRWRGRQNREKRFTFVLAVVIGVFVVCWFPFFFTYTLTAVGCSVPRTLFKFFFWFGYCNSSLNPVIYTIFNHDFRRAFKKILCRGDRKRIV

[31] = target: Tyrosine-protein kinase FRK (Homo sapiens) (UniProt P42685); details: Compound concentration 1000.0 nM
[32] = target: 3-phosphoinositide-dependent protein kinase 1 (Homo sapiens) (UniProt O15530); details: Compound concentration 1000.0 nM
[33] = target: Cyclin-dependent kinase 13 (Homo sapiens) (UniProt Q14004); details: Compound concentration 1000.0 nM
[34] = target: Myosin light chain kinase, smooth muscle (Homo sapiens) (UniProt Q15746); details: Compound concentration 1000.0 nM
[35] = target: Motilin receptor (Homo sapiens) (UniProt O43193); test: motilin (h Eurofins-Cerep binding assay; parameters: ligand concentration 0.05 nM; details: filed as agonist, Compound concentration 10.0 uM
[36] = target: Activin receptor type-2A (Homo sapiens) (UniProt P27037); details: Compound concentration 1000.0 nM
[37] = target: Serine/threonine-protein kinase Nek1 (Homo sapiens) (UniProt Q96PY6); details: Compound concentration 1000.0 nM
[38] = target: Serine/threonine-protein kinase haspin (Homo sapiens) (UniProt Q8TF76); details: Compound concentration 1000.0 nM

COc1ccc2c(c1)O[C@@H](c1ccc(OC)c(OC)c1)C[C@H]2NC(=O)C1(c2ccc3c(c2)OC(F)(F)O3)CC1 [A-1596586]
EC50 [1]: 0.028 µM (active)
residual activity [2]: 100%
residual activity [3]: 74%
% Inhibition of Control Specific Binding (Mean n=2) [4]: -18.2%
residual activity [5]: 85%
residual activity [6]: 86%
residual activity [7]: 95%
residual activity [8]: 77%
residual activity [9]: 88%
residual activity [10]: 82%
Ki [11]: 0.315 µM
% Inhibition of Control Specific Binding (Mean n=2) [12]: 27.7%
inhibition [13]: -2.97%
residual activity [14]: 90%
residual activity [15]: 90%
residual activity [16]: 97%
residual activity [17]: 100%
residual activity [18]: 90%
residual activity [19]: 100%
residual activity [20]: 86%
residual activity [21]: 77%
residual activity [22]: 87%
inhibition at 90 min, 10 µM [23]: 34.6%
% Inhibition of Control Specific Binding (Mean n=2) [24]: 8.8%
residual activity [25]: 80%
residual activity [26]: 88%
% Inhibition of Control Specific Binding (Mean n=2) [27]: 10.4%
% Inhibition of Control Specific Binding (Mean n=2) [28]: 19.2%
residual activity [29]: 90%
% Inhibition of Control Specific Binding (Mean n=2) [30]: 8.7%
residual activity [31]: 100%
residual activity [32]: 100%
residual activity [33]: 98%
residual activity [34]: 85%
% Inhibition of Control Specific Binding (Mean n=2) [35]: 10.7%
residual activity [36]: 90%
residual activity [37]: 100%
residual activity [38]: 81%

COc1ccc2c(c1)O[C@H](c1ccc(OC)c(OC)c1)C[C@@H]2NC(=O)C1(c2ccc3c(c2)OC(F)(F)O3)CC1 [A-1596584]
EC50 [1]: > 3 µM (not active)
residual activity [2]: 89%
residual activity [3]: 74%
% Inhibition of Control Specific Binding (Mean n=2) [4]: -14.1%
residual activity [5]: 90%
residual activity [6]: 98%
residual activity [7]: 95%
residual activity [8]: 100%
residual activity [9]: 95%
residual activity [10]: 93%
Ki [11]: 2.74 µM
% Inhibition of Control Specific Binding (Mean n=2) [12]: 18.7%
inhibition [13]: 6.21%
residual activity [14]: 98%
residual activity [15]: 100%
residual activity [16]: 90%
residual activity [17]: 100%
residual activity [18]: 99%
residual activity [19]: 100%
residual activity [20]: 95%
residual activity [21]: 91%
residual activity [22]: 100%
inhibition at 90 min, 10 µM [23]: 2.6%
% Inhibition of Control Specific Binding (Mean n=2) [24]: 2.2%
residual activity [25]: 90%
residual activity [26]: 100%
% Inhibition of Control Specific Binding (Mean n=2) [27]: 5%
% Inhibition of Control Specific Binding (Mean n=2) [28]: 5%
residual activity [29]: 100%
% Inhibition of Control Specific Binding (Mean n=2) [30]: 5.1%
residual activity [31]: 100%
residual activity [32]: 100%
residual activity [33]: 100%
residual activity [34]: 100%
% Inhibition of Control Specific Binding (Mean n=2) [35]: 26.4%
residual activity [36]: 97%
residual activity [37]: 100%
residual activity [38]: 91%

From ChEMBL document CHEMBL4507262, “Data for DCP probe A-1596586” (2021)
